The values that follow come from patent publication US20230174933A1, “METHODS OF MAKING CHIMERIC ANTIGEN RECEPTOR-EXPRESSING CELLS” (Novartis AG, priority 2020, published 2023).

One assay relates to BCMA-CAR. The assay is described as follows: ARM-BCMA CAR expression kinetics in vitro with or without AZT (FACS). The class given is cell-based. Conditions: AZT 30 μM and 100 μM. As to the method:
In contrast to TM which measures lentiviral integration of the CAR transgene after 8-9 days, in the ARM process, the lentiviral transgene may not be fully integrated and truly expressed within 24 h post lentiviral addition, as lentiviral pseudotransduction could occur (Haas D L, et al., (2000) Mol Ther; 2(1):71-80; Galla M, et al., (2004) Mol Cell; 16(2):309-15). […] Flow cytometry (FACS) analyses were performed to detect CAR surface expression at 24 h, 48 h, 72 h, 96 h and 168 h post T cell activation and transduction with the lentiviral vector. In some cases, ARM-BCMA CAR and an aliquot of this product were frozen down immediately upon harvest for additional characterization in other assays.

For assay [1], the system named is T cells activated with αCD3αCD28 beads. The assay is described as follows: Fold expansion, cell size and viability of cytokine treated T cells after TCR engagement. Format: cell-based. Conditions: T cells activated with αCD3αCD28 beads at day 0 in the presence of cytokine. From the text: FIG. 12: Fold expansion of cytokine treated T cells after TCR engagement. T cells were activated with αCD3αCD28 beads at day 0 in the presence of indicated cytokines and then monitored for cell numbers at indicated time points.
T cells were activated with αCD3αCD28 beads at day 0 in the presence of indicated cytokines and then monitored for cell size (FIG. 13A) and viability (FIG. 13B) at indicated time points.

The subject of the next assay is T cells. The assay is described as follows: T cell expansion with cytokines after αCD3/αCD28 bead stimulation. Format: cell-based. On the procedure:
Previously frozen T cells were thawed and contacted with αCD3/αCD28 dynal beads (cell to bead ratio of 1 to 3) in the presence of indicated cytokines at day 0. From day 3, twice more T cell growth media (RPMI1640, 10% FBS, 2 mM L-glutamin, 100 μM non-essential amino acids, 1 mM sodium pyruvate, 10 mM Hepes, 55 μM β-mercaptoethanol, 10% FBS, and 100 U/ml of penicillin-streptomycin) was added to the plate with indicated cytokines (without cytokine, rhIL2 (50 IU/ml, Novartis), IL6 (long/ml, R&D systems), IL7 (long/ml, Peprotech), IL15 (long/ml, Peprotech), and IL21 (long/ml, Peprotech)) at day 3, 5, 6, 9, 12, 15, and 18.
Cells were harvested at indicated time points and then stained with live/dead dye (eFluro780, eBioscience), CD3 (BioLegend, clone#: OKT3), CD4 (BioLegend, clone#: OKT4), CD8 (BD Bioscience, clone#: RPA-T8), CD45RO (BioLegend, clone#: UCHL1), CCR7 (BioLegend, clone#: G043H7), CD27 (BD Horizon, clone#: L128), CD127 (BioLegend, clone#: A019D5), CD57 (BioLegend, clone#: HCD57), CD126 (BioLegend, clon#: UV4), and CD130 (R&D Systems, clone#: 28126) antibodies. The cells were acquired by FACS Fortessa and then FlowJo program was used for data analysis.

Assay [2] concerns the target T1, BCMA (TNFRSF17) of the commercial human plasma membrane protein array (human, UniProt Q02223 1-184, limits assumed).
T1 sequence (looked up): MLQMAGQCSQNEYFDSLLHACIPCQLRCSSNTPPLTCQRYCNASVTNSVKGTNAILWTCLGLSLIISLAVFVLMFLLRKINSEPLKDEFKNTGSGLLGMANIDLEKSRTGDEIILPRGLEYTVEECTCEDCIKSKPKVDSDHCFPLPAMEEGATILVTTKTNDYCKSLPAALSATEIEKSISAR
As to the kind of experiment: commercial human plasma membrane protein array.

In the case of `Cc1cn([C@H]2C[C@H](N=[N+]=[N-])[C@@H](CO)O2)c(=O)[nH]c1=O` [AZT, 3′-azido-3′-deoxythymidine], the “inhibition of CAR expression” value with BCMA-CAR is “effectively inhibit CAR expression”.

In the case of IL15: cytokine, in assay [1], the cell size result was “did not affect” and the viability result is on record as “did not affect”. Also, the “expansion of IL6Rβ expressing cells” value in the assay with T cells is on record as “enhanced expansion of IL6Rβ expressing cells”. Besides, the T cell expansion result in the assay on T cells (αCD3/αCD28 bead stimulated T cells plus cytokine) is listed as “showing the greatest enhancement”.

B1: anti-human BCMA single chain antibody variable fragment (scFv) (PI61) (scFv)
scFv: QVQLQESGGGVVQPGRSLRLSCAASGFTFSSYGMHWVRQAPGKGLEWVAVISYDGSNKYYADSVKGRFTISRDNSKNTLYLQMNSLRAEDTAVYYCGGSGYALHDDYYGLDVWGQGTLVTVSSGGGGSGGGGSGGGGSQSALTQPASVSGSPGQSITISCTGTSSDVGGYNYVSWYQQHPGKAPKLMIYDVSNRPSGVSNRFSGSKSGNTASLTISGLQAEDEADYYCSSYTSSSTLYVFGSGTKVTVL
notes: also called PI61 scFv
Consider B1, for which, in assay [2], the binding result was “binds”.
